Target: T1, JNK1 (Homo sapiens, UniProt P45983)
T1 construct: purchased Carna Biosciences
Assay: JNK1 biochemical assays (one or more of: time resolved fluorescence, Z'-LYTE Cascade, radioactive)
Settings: one or more of the JNK1 biochemical assays; read-out: Act. Level (JNK1 IC50 activity level)

T1 sequence (P45983 whole entry): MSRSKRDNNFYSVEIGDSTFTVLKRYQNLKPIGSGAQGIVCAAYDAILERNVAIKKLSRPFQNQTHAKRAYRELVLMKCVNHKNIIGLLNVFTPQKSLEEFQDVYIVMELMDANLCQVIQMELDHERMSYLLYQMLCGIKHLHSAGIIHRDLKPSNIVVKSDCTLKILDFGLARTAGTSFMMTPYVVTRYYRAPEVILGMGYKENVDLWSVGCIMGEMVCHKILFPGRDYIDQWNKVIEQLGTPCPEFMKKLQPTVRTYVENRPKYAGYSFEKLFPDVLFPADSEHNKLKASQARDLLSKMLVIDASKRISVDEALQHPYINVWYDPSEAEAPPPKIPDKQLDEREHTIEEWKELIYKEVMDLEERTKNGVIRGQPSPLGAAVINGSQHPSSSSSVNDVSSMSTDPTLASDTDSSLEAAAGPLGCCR

Row | SMILES | IC50
1 | CC(C)(C)Nc1ncc(C(N)=O)c(N[C@@H]2CCCOC2)n1 [Example 236, (R)-2-(tert-butylamino)-4-(tetrahydro-2H-pyran-3-ylamino)pyrimidine-5-carboxamide] | 200 to 800 nM
2 | CC(C)(C)Nc1nc(NC23CCC(O)(CC2)CC3)ncc1C(N)=O [Example 237, 4-(tert-butylamino)-2-(4-hydroxybicyclo[2.2.2]octan-1-ylamino)pyrimidine-5-carboxamide] | < 200 nM
3 | CC(C)(C)Nc1ncc(C(N)=O)c(NC(C)(C)C)n1 [Example 238, 2,4-bis(tert-butylamino)pyrimidine-5-carboxamide] | 200 to 800 nM
4 | CC1(Nc2nc(N[C@H]3CC[C@H](O)CC3)ncc2C(N)=O)CCC1 [Example 239, 2-((1r,4r)-4-hydroxycyclohexylamino)-4-(1-methylcyclobutylamino)pyrimidine-5-carboxamide] | < 200 nM
5 | CC(C)Nc1ncc(C(N)=O)c(N[C@@H]2CC[C@@H](C)[C@H](O)C2)n1 [Example 240, 4-((1R,3R,4R)-3-hydroxy-4-methylcyclohexylamino)-2-(isopropylamino)pyrimidine-5-carboxamide] | < 200 nM
6 | NC(=O)c1cnc(NC2CCC(F)(F)CC2)nc1N[C@@H]1CCC[C@@H]1CO [Example 241, 2-(4,4-difluorocyclohexylamino)-4-((1R,2S)-2-(hydroxymethyl)cyclopentylamino)pyrimidine-5-carboxamide] | < 200 nM
7 | CO[C@H]1CC[C@H](Nc2ncc(C(N)=O)c(NC3CCC3C)n2)CC1 (stereo partly drawn) [Example 242, 2-((1r,4r)-4-methoxycyclohexylamino)-4-(2-methylcyclobutylamino)pyrimidine-5-carboxamide] | < 200 nM
8 | CO[C@H]1CC[C@H](Nc2ncc(C(N)=O)c(NC3CCC3C)n2)CC1 (stereo partly drawn) [Example 243, 2-((1r,4r)-4-methoxycyclohexylamino)-4-(2-methylcyclobutylamino)pyrimidine-5-carboxamide] | < 200 nM
9 | CC1CCC1Nc1nc(N[C@H]2CC[C@H](O)CC2)ncc1C(N)=O (stereo partly drawn) [Example 244, 2-((1r,4r)-4-hydroxycyclohexylamino)-4-(2-methylcyclobutylamino)pyrimidine-5-carboxamide] | < 200 nM
10 | CC1CCC1Nc1nc(N[C@H]2CC[C@H](O)CC2)ncc1C(N)=O (stereo partly drawn) [Example 245, 2-((1r,4r)-4-hydroxycyclohexylamino)-4-(2-methylcyclobutylamino)pyrimidine-5-carboxamide] | < 200 nM
11 | CC1CCC1Nc1nc(N[C@H]2CC[C@H](O)CC2)ncc1C(N)=O (stereo partly drawn) [Example 246, 2-((1r,4r)-4-hydroxycyclohexylamino)-4-(2-methylcyclobutylamino)pyrimidine-5-carboxamide] | < 200 nM
12 | CC1CCC1Nc1nc(N[C@H]2CC[C@H](O)CC2)ncc1C(N)=O (stereo partly drawn) [Example 247, 2-((1r,4r)-4-hydroxycyclohexylamino)-4-(2-methylcyclobutylamino)pyrimidine-5-carboxamide] | < 200 nM
13 | NC(=O)c1cnc(NC2CCCC(O)CC2)nc1NC1CCC1 (stereo not drawn) [Example 248, 4-(cyclobutylamino)-2-(4-hydroxycycloheptylamino)pyrimidine-5-carboxamide] | < 200 nM
14 | NC(=O)c1cnc(NC2CCCC(O)CC2)nc1NC1CCC1 (stereo not drawn) [Example 249, 4-(cyclobutylamino)-2-(4-hydroxycycloheptylamino)pyrimidine-5-carboxamide] | < 200 nM
15 | CC(C)(C)Nc1nc(NC2CCCC(O)CC2)ncc1C(N)=O (stereo not drawn) [Example 250, 4-(tert-butylamino)-2-(4-hydroxycycloheptylamino)pyrimidine-5-carboxamide] | < 200 nM
16 | CC(C)(C)Nc1nc(NC2CCCC(O)CC2)ncc1C(N)=O (stereo not drawn) [Example 251, 4-(tert-butylamino)-2-(4-hydroxycycloheptylamino)pyrimidine-5-carboxamide] | < 200 nM
17 | NC(=O)c1cnc(NC2CCOCC2)nc1N[C@@H]1CCC[C@@H]1CO [Example 252, 4-((1R,2S)-2-(hydroxymethyl)cyclopentylamino)-2-(tetrahydro-2H-pyran-4-ylamino)pyrimidine-5-carboxamide] | < 200 nM
18 | CC(C)Nc1nc(NC23CCC(F)(CC2)CC3)ncc1C(N)=O [Example 253, 2-(4-fluorobicyclo[2.2.2]octan-1-ylamino)-4-(isopropylamino)pyrimidine-5-carboxamide] | < 200 nM
19 | CO[C@H]1CC[C@H](Nc2ncc(C(N)=O)c(NC3CCC3C)n2)CC1 (stereo partly drawn) [Example 254, 2-((1r,4r)-4-methoxycyclohexylamino)-4-(2-methylcyclobutylamino)pyrimidine-5-carboxamide] | < 200 nM
20 | CO[C@H]1CC[C@H](Nc2ncc(C(N)=O)c(NC3CCC3C)n2)CC1 (stereo partly drawn) [Example 255, 2-((1r,4r)-4-methoxycyclohexylamino)-4-(2-methylcyclobutylamino)pyrimidine-5-carboxamide] | < 200 nM

Row | SMILES | IC50
21 | CC1CCC1Nc1nc(N[C@H]2CC[C@H](OCC(F)(F)F)CC2)ncc1C(N)=O (stereo partly drawn) [Example 256, 4-(2-methylcyclobutylamino)-2-((1r,4r)-4-(2,2,2-trifluoroethoxy)cyclohexylamino)pyrimidine-5-carboxamide] | < 200 nM
22 | CC1CCC1Nc1nc(N[C@H]2CC[C@H](OCC(F)(F)F)CC2)ncc1C(N)=O (stereo partly drawn) [Example 257, 4-(2-methylcyclobutylamino)-2-((1r,4r)-4-(2,2,2-trifluoroethoxy)cyclohexylamino)pyrimidine-5-carboxamide] | < 200 nM
23 | CC1CCC1Nc1nc(N[C@H]2CC[C@H](OCC(F)(F)F)CC2)ncc1C(N)=O (stereo partly drawn) [Example 258, 4-(2-methylcyclobutylamino)-2-((1r,4r)-4-(2,2,2-trifluoroethoxy)cyclohexylamino)pyrimidine-5-carboxamide] | < 200 nM
24 | CCO[C@H]1CC[C@H](Nc2ncc(C(N)=O)c(N[C@@H]3CCC[C@H]3CO)n2)CC1 [Example 259, 2-((1r,4R)-4-ethoxycyclohexylamino)-4-((1R,2R)-2-(hydroxymethyl)cyclopentylamino)pyrimidine-5-carboxamide] | < 200 nM
25 | CO[C@H]1CC[C@H](Nc2ncc(C(N)=O)c(N[C@@H]3CCC[C@H]3CO)n2)CC1 [Example 260, 4-((1R,2R)-2-(hydroxymethyl)cyclopentylamino)-2-((1r,4R)-4-methoxycyclohexylamino)pyrimidine-5-carboxamide] | < 200 nM
26 | C[C@@H](Nc1nc(N[C@H]2CC[C@H](O)CC2)ncc1C(N)=O)C1CC1 [Example 261, 4-((R)-1-cyclopropylethylamino)-2-((1r,4R)-4-hydroxycyclohexylamino)pyrimidine-5-carboxamide] | < 200 nM
27 | CCC(C)(CC)Nc1nc(N[C@H]2CC[C@H](O)CC2)ncc1C(N)=O [Example 262, 2-((1r,4r)-4-hydroxycyclohexylamino)-4-(3-methylpentan-3-ylamino)pyrimidine-5-carboxamide] | < 200 nM
28 | C[C@H](Nc1nc(N[C@H]2CC[C@H](O)CC2)ncc1C(N)=O)C1CC1 [Example 263, 4-((S)-1-cyclopropylethylamino)-2-((1r,4S)-4-hydroxycyclohexylamino)pyrimidine-5-carboxamide] | < 200 nM
29 | C[C@@H]1CC[C@@H](Nc2nc(NC34CC(C3)C4)ncc2C(N)=O)C[C@H]1O [Example 264, 2-(bicyclo[1.1.1]pentan-1-ylamino)-4-((1R,3R,4R)-3-hydroxy-4-methylcyclohexylamino)pyrimidine-5-carboxamide] | < 200 nM
30 | CC1CCC1Nc1nc(N[C@H]2CC[C@H](OCC(F)(F)F)CC2)ncc1C(N)=O (stereo partly drawn) [Example 265, 4-(2-methylcyclobutylamino)-2-((1r,4r)-4-(2,2,2-trifluoroethoxy)cyclohexylamino)pyrimidine-5-carboxamide] | < 200 nM
31 | NC(=O)c1cnc(N[C@H]2CC[C@H](OCC(F)(F)F)CC2)nc1N[C@@H]1CCC[C@@H]1CO [Example 266, 4-((1R,2S)-2-(hydroxymethyl)cyclopentylamino)-2-((1r,4R)-4-(2,2,2-trifluoroethoxy)cyclohexylamino)pyrimidine-5-carboxamide] | < 200 nM
32 | NC(=O)c1cnc(NC23CCC(F)(CC2)CC3)nc1N[C@@H]1CCC[C@H](O)C1 [Example 267, 2-(4-fluorobicyclo[2.2.2]octan-1-ylamino)-4-((1R,3S)-3-hydroxycyclohexylamino)pyrimidine-5-carboxamide] | < 200 nM
33 | NC(=O)c1cnc(N[C@H]2CC[C@H](OC(F)F)CC2)nc1N[C@@H]1CCC[C@@H]1CO [Example 268, 2-((1r,4R)-4-(difluoromethoxy)cyclohexylamino)-4-((1R,2S)-2-(hydroxymethyl)cyclopentylamino)pyrimidine-5-carboxamide] | < 200 nM
34 | CCNc1nc(N[C@H]2CC[C@H](O)CC2)ncc1C(N)=O [Example 269, 4-(ethylamino)-2-((1r,4r)-4-hydroxycyclohexylamino)pyrimidine-5-carboxamide] | < 200 nM
35 | CNc1nc(N[C@H]2CC[C@H](O)CC2)ncc1C(N)=O [Example 270, 2-((1r,4r)-4-hydroxycyclohexylamino)-4-(methylamino)pyrimidine-5-carboxamide] | 200 to 800 nM
36 | COCC(C)(C)Nc1nc(N[C@H]2CC[C@H](O)CC2)ncc1C(N)=O [Example 271, 2-((1r,4r)-4-hydroxycyclohexylamino)-4-(1-methoxy-2-methylpropan-2-ylamino)pyrimidine-5-carboxamide] | < 200 nM
37 | C[C@@H]1CC[C@@H](Nc2nc(NC3CC3)ncc2C(N)=O)C[C@H]1O [Example 272, 2-(cyclopropylamino)-4-((1R,3R,4R)-3-hydroxy-4-methylcyclohexylamino)pyrimidine-5-carboxamide] | < 200 nM
38 | CCO[C@H]1CC[C@H](Nc2ncc(C(N)=O)c(NC(C)(C)C(C)C)n2)CC1 [Example 273, 4-(2,3-dimethylbutan-2-ylamino)-2-((1r,4r)-4-ethoxycyclohexylamino)pyrimidine-5-carboxamide] | < 200 nM
39 | CO[C@H]1CC[C@H](Nc2ncc(C(N)=O)c(NC(C)(C)C(C)C)n2)CC1 [Example 274, 4-(2,3-dimethylbutan-2-ylamino)-2-((1r,4r)-4-methoxycyclohexylamino)pyrimidine-5-carboxamide] | < 200 nM
